Measurements from patent US20240101548A1, “HYDROXAMATE COMPOUND, PREPARATION METHOD THEREFOR AND APPLICATION THEREOF” (SHENZHEN CHIPSCREEN BIOSCIENCES CO., LTD., priority 2020, published 2024).
Like-named read-outs stand apart in the source and are kept apart here.

Tests used:
Format in all cases: cell-based, human
[1] = system: IL-2-induced JAK1/JAK3 signal pathway; test: IL-2-induced proliferation of KHYG-1 cells (JAK1/JAK3 signal); conditions: KHYG-1 cell proliferation, IL-2 10 ng/mL, 72 hours, read-out: Inhibition activity IC50 on IL-2-induced JAK1/JAK3 signal pathway
Outline: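 Controls were wells lacking both compound and cytokine (0%) and compound-free IL-2 wells (100%). C50 was calculated from inhibition rates across doses.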

[2] = system: IL-10-induced JAK1/TYK2 signal pathway; test: IL-10-induced JAK1/TYK2 signal pathway STAT3-Luc reporter gene assay in U2OS cells; conditions: U2OS cells, STAT3-Luc reporter, IL-10 10 ng/mL, read-out: Half inhibition dose (IC50) on IL-10-induced JAK1/TYK2 signal pathway
Source text: Cytokine IL-10 is one of the main members of IL-10 family. The receptor that cytokine IL-10 binds to consists of two kinds of subunits, i.e., IL-10R1 and IL-10R2, which respectively couple with JAK1 and TYK2. After the coupling of IL-10 with its receptor, interaction of phosphorylation occurs between JAK1 and TYK2 to form STAT3 docking site for phosphorylation of STAT3. The phosphorylated STAT3 enters the nucleus and drives the transcription and expression of downstream genes.
The reporter gene plasmid STAT3-Luc Reporter used in the present invention has luciferase expression sequence as the reporter gene, upstream of which is a promoter sequence containing multiple STAT3 binding sites. When phosphorylated STAT3 induced by IL-10 signal pathway binds to the promoter of STAT3-Luc Reporter plasmid, luciferase is transcribed and expressed. The excitation fluorescence catalyzed by Luciferase can be detected after the addition of […] substrate, whose intensity can quantitively reflect the activation level of the signal pathway.
Human osteosarcoma cell line U20S was commercially available from American Type Culture Collection (ATCC), and relevant culture conditions referred to those from ATCC. It was known that such cell line could express IL-10R2, JAK1, TYK2 and STAT3, therefore, by exogenous expression of IL-10R1 gene, a complete IL-10 signal pathway could be established. The human IL-10R1 subunit overexpression plasmid pCMV3-IL10RA-EGFP was constructed by Shanghai Genechem Co., Ltd., and capable of simultaneously expressing enhanced green fluorescent protein. In the subsequent detection and calculation, the signal of green fluorescent protein in the tested sample was used as a reference for transfection efficiency calibration of the luciferase reporter gene signal. Reporter plasmid STAT3-Luc Reporter was commercially available from Ji Man Biotech (Shanghai) Co., Ltd.
X-tremeGENE 9 DNA Transfection Reagent (Roche) was used for the transfection of plasmid DNA into cells, Cell Culture Lysis 5× reagent (Promega) and Luciferase Assay System (Promega) were used in cell lysate preparation and enzyme-substrate reaction for luciferase reporter gene detection. Green fluorescent protein signal and luciferase reporter gene signal were both detected by Tecan Spark™ 10M multimode microplate reader. The inhibition rate of the tested compound on the IL-10 signal pathway reporter gene signal and the half inhibition dose IC50 were both calculated using Microsoft Excel and GraphPad Prism 7.00 software.
U2OS cell line was inoculated in 96-well plate with flat bottom at 5000 cells per well, and cultured overnight at 37° C. and 5% CO2 followed by plasmid transfection. Following the instructions and using X-tremeGENE 9 DNA Transfection Reagent, pCMV3-IL10RA-EGFP and STAT3-Luc Reporter plasmids were co-transfected into the inoculated U2OS cells. After 24 hours of transfection, the tested compound was added respectively for a final concentration of 0, 0.1, 0.3, 1, 3, 10, 30, 100, or 300 nM. After 6 hours of culture at 37° C. and 5% CO2, IL-10 cytokine (Human IL-10 PEPROTECH 200-10-10UG) was added to each well for a final concentration of 10 ng/mL, the well in which neither compound nor cytokine was added was designated as 0% control well. The culture was continued for 24 hours before testing.
Cell lysate was prepared by using Cell Culture Lysis reagent and transferred to 96-well plate with half-well clear bottom. The green fluorescent protein signal value was detected at Ex485/Em520 using Tecan microplate reader, and recorded. After adding to each well the luciferase substrate from Luciferase Assay System, the signal value of luciferase-substrate reaction was immediately detected at 560 nm using Tecan microplate reader, and recorded.
Using Microsoft Excel software, the signal value of luciferase-substrate reaction of each well was calculated and calibrated based on the signal value of green fluorescent protein of each well. […]

[3] = system: EPO-induced JAK2 signal pathway; test: EPO-induced proliferation of UT-7 cells (JAK2 signal); conditions: UT-7 cell proliferation, EPO 10 ng/mL, 72 hours, read-out: Inhibition activity IC50 on EPO-induced JAK2 signal pathway
Outline: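 […] was derived from inhibition rates across doses, scaled between wells lacking compound and cytokine (0) and EPO without compound (100), using alamarBlue fluorescence at Ex530/Em590. Compound (final 0-10000 nM) and 10 ng/mL EPO were given to UT-7 cells at 15000 per well for 72 h at 37° C.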

SMILES | IC50 ([1]; Homo sapiens) [µM] | IC50 ([2]; Homo sapiens, U2OS) [µM] | IC50 ([3]; Homo sapiens, UT7) [µM] | IC50 ([2]; Homo sapiens) [µM] | IC50 [1] [µM] | IC50 [2] [µM] | IC50 [3] [µM]
CCONC(=O)c1cnc(Nc2ccnc(OC)n2)cc1Nc1ccc(C2CC2)cc1N(C)S(C)(=O)=O [Example 179, 4-((4-cyclopropyl-2-(N-methylmethanesulfonamido)phenyl)amino)-N-ethoxy-6-((2-methoxypyrimidin-4-yl)amino)nicotinamide] | > 10 | 0.00131 | > 10 | – | – | – | –
CCONC(=O)c1cnc(Nc2ncc(F)cc2F)cc1Nc1cccc(-c2ncccn2)c1OC [Example 242, 6-((3,5-difluoropyridin-2-yl)amino)-N-ethoxy-4-((2-methoxy-3-(pyrimidin-2-yl)phenyl)amino)nicotinamide] | > 10 | – | > 10 | 0.00212 | – | – | –
CONC(=O)c1cnc(Nc2cccc(F)n2)cc1Nc1ccc(C)nc1N(C)S(C)(=O)=O [Example 109, 6-((6-fluoropyridin-2-yl)amino)-N-methoxy-4-((6-methyl-2-(N-methylmethanesulfonamido)pyridin-3-yl)amino)nicotinamide] | > 10 | 0.000733 | > 10 | – | – | – | –
C#Cc1ccc(Nc2cc(Nc3ccc(C4CC4)cn3)ncc2C(=O)NOCC)c(N(C)S(C)(=O)=O)c1 [Example 154, 6-((5-cyclopropylpyridin-2-yl)amino)-N-ethoxy-4-((4-ethynyl-2-(N-methylmethanesulfonamido)phenyl)amino)nicotinamide] | > 10 | 0.00152 | > 10 | – | – | – | –
CONC(=O)c1cnc(NC(=O)C2CC2)cc1Nc1ccccc1N(C)S(C)(=O)=O [Example 2, 6-(cyclopropylcarboxamido)-N-methoxy-4-((2-(N-methylmethanesulfonamido)phenyl)amino)nicotinamide] | > 10 | 0.00158 | > 10 | – | – | – | –
CCONC(=O)c1cnc(Nc2ccc(OC)cc2)cc1Nc1ccc(Cl)cc1N(C)S(C)(=O)=O [Example 113, 4-((4-chloro-2-(N-methylmethanesulfonamido)phenyl)amino)-N-ethoxy-6-((4-methoxyphenyl)amino)nicotinamide] | > 10 | 0.000414 | > 10 | – | – | – | –
CCONC(=O)c1cnc(Nc2nc(C)cs2)cc1Nc1ccc(C2CC2)cc1N(C)S(C)(=O)=O [Example 157, 4-((4-cyclopropyl-2-(N-methylmethanesulfonamido)phenyl)amino)-N-ethoxy-6-((4-methylthiazol-2-yl)amino)nicotinamide] | > 10 | 0.00149 | > 10 | – | – | – | –
CCONC(=O)c1cnc(Nc2cccc(C)n2)cc1Nc1ccc(C2CC2)cc1N(C)S(C)(=O)=O [Example 224, 4-((4-cyclopropyl-2-(N-methylmethanesulfonamido)phenyl)amino)-N-ethoxy-6-((6-methylpyridin-2-yl)amino)nicotinamide] | – | – | – | – | > 10 | 0.000177 | > 10
C#Cc1ccc(Nc2cc(Nc3ccc(OC)cn3)ncc2C(=O)NOC)c(N(C)S(C)(=O)=O)c1 [Example 18, 4-((4-ethynyl-2-(N-methylmethanesulfonamido)phenyl)amino)-N-methoxy-6-((5-methoxypyridin-2-yl)amino)nicotinamide] | > 10 | – | > 10 | 0.000784 | – | – | –
CCONC(=O)c1cnc(Nc2cc(C)nc(C)n2)cc1Nc1ccc(C2CC2)cc1N(C)S(=O)(=O)CC [Example 185] | > 10 | 0.000821 | > 10 | – | – | – | –
CCONC(=O)c1cnc(Nc2ccc(C)nn2)cc1Nc1ccc(C2CC2)cc1N(C)S(C)(=O)=O [Example 159, 4-((4-cyclopropyl-2-(N-methylmethanesulfonamido)phenyl)amino)-N-ethoxy-6-((6-methylpyridazin-3-yl)amino)nicotinamide] | > 10 | 0.000907 | > 10 | – | – | – | –
CCONC(=O)c1cnc(Nc2cc(C)nc(C)n2)cc1Nc1ccc(C2CC2)cc1N(C)S(=O)(=O)C1CC1 [Example 189] | > 10 | 0.000825 | > 10 | – | – | – | –
